Assay results published in patent publication US6737407B1, “Treatment of obesity” (Metabolic Pharmaceuticals, Ltd., priority 1997, dated 2004).
Bridges are numbered along the chain shown (N, C = ends). Where no end group is shown, it is not given here. [ ]: non-standard residue; d: D form. The star is where a group is joined. Pen = CC(C)(S)[C@H](N)C(=O)O; Acm = CC(=O)NC*

Tested on: adipose tissues from male Zucker fatty (fa/fa) rats
Experiment: In vitro inhibition of lipogenesis in isolated adipose tissue
Assay type: cell-based, rat
Details: for activity according to the in vivo and in vitro assay results (in words): structure-activity summary; for In vitro lipogenesis % of control / In vitro lipogenesis Activity / In vitro lipogenesis, rate of [C14]-glucose incorporation into [C14]-lipid: peptide 0.3 μM, insulin 0.1 mU/ml; for In vitro lipogenesis, rate of [C14]-glucose incorporation into [C14]-lipid: KRB buffer
Experimental: The rate of the incorporation of exogenous [C^14]-glucose into total lipid in adipose tissue was measured as the index of anti-lipogenic activity of hGH 177-191.
Adipose tissues were sliced into segments of approximately 200 mg each and then placed in Krebs-Ringer bicarbonate (KRB) buffer (pH 7.4) containing 2% defatted BSA, and glucose (0.1 mg/ml) and gassed with 95% O2-5% CO2 at 37° C. After 1 hr preincubation, the tissues were transferred to another 2 ml of fresh media containing [C^14]-glucose (final specific activity 0.05 μCi/μmol), and 0.3 μM of hGH 177-191 in the presence or absence of insulin (0.1 mU/ml) for a further 90 min incubation (conditions as above). Then the tissues were removed, washed thoroughly with KRB buffer and lipid was extracted with 5 ml of chlorofom/methanol (2:1, v/v) The extraction solution was washed with 2 ml of MeOH-H2O solution containing 0.1% MgCl2. A 2.5 ml aliquot of the washed extraction solution was taken and transferred to scintillation vials. The [C^14] radioactivity was measured with a liquid scintillation counter. The rates of total lipid synthesis were expressed as μmol [C^14]-glucose incorporated into lipid/g tissue/hr.

Substance	activity according to the in vivo and in vitro assay results (in words)	In vitro lipogenesis % of control	In vitro lipogenesis Activity	In vitro lipogenesis, rate of [C14]-glucose incorporation into [C14]-lipid
9408 (LRIVQCKSVEGSCGF; lactam 7-10; disulfide 6-13; listed as Homo sapiens) [compound 9408]	retains activity			
9404 (LRIVQCRSVEGSCGF-NH2; disulfide 6-13; N-terminus assumed; SMILES CC[C@H](C)[C@H](NC(=O)[C@H](CCCNC(=N)N)NC(=O)[C@@H](N)CC(C)C)C(=O)N[C@H](C(=O)N[C@@H](CCC(N)=O)C(=O)N[C@H]1CSSC[C@@H](C(=O)NCC(=O)N[C@@H](Cc2ccccc2)C(N)=O)NC(=O)[C@H](CO)NC(=O)CNC(=O)[C@H](CCC(=O)O)NC(=O)[C@H](C(C)C)NC(=O)[C@H](CO)NC(=O)[C@H](CCCNC(=N)N)NC1=O)C(C)C; listed as Homo sapiens) [Compound 9404]		77 % of control	Active	187 ± 18 nmol/g tissue/hr
9407 (LRIVQCKSVEGSCGF; disulfide 6-13; listed as Homo sapiens) [Compound 9407]		71 % of control	Active	174 ± 16 nmol/g tissue/hr
9615 (LRIVQCRSVEASCGF; disulfide 6-13; listed as Homo sapiens) [Compound 9615]		76 % of control	Active	183 ± 17 nmol/g tissue/hr
9617 (LRIVQCRSVEGSAGF; listed as Homo sapiens) [Compound 9617]		92 % of control	Inactive	223 ± 16 nmol/g tissue/hr
9601 (LRIVQCRSVEGSCGA; disulfide 6-13; listed as Homo sapiens) [Compound 9601]		76 % of control	Active	185 ± 24 nmol/g tissue/hr
9612 (LRIVQCRAVEGSCGF; disulfide 6-13; listed as Homo sapiens) [Compound 9612]		79 % of control	Active	191 ± 20 nmol/g tissue/hr
9402 (LRIVQC(Acm)RSVEGSCGF; not fully specified (residue 13); listed as Homo sapiens) [Compound 9402]		91 % of control	Inactive	222 ± 9 nmol/g tissue/hr
9405 (Ac-LRIVQCRSVEGSCGF; disulfide 6-13; listed as Homo sapiens) [Compound 9405]		68 % of control	Active	164 ± 17 nmol/g tissue/hr
9606 (LKIVQCRSVEGSCGF; disulfide 6-13; listed as Homo sapiens) [Compound 9606]		77 % of control	Active	187 ± 19 nmol/g tissue/hr
9501 (LRIVQCRSVE[dA]SC[dA]F; disulfide 6-13; listed as Homo sapiens) [Compound 9501]		76 % of control	Active	185 ± 6 nmol/g tissue/hr
9402 (LRIVQC(Acm)RSVEGSCGF; not fully specified (residue 13); listed as Homo sapiens) [compound 9402]	inactive			
9603 (LAIVQCRSVEGSCGF; listed as Homo sapiens) [Compound 9603]		93 % of control	Inactive	225 ± 18 nmol/g tissue/hr
9502 (LRIVQ[Pen]RSVEGS[Pen]GF; disulfide 6-13; listed as Homo sapiens) [Compound 9502]		72 % of control	Active	174 ± 5 nmol/g tissue/hr
9607 (ARIVQCRSVEGSCGF; disulfide 6-13; listed as Homo sapiens) [Compound 9607]		82 % of control	Active	198 ± 12 nmol/g tissue/hr
9617 (LRIVQCRSVEGSAGF; listed as Homo sapiens) [compound 9617]	inactive			
9604 (YLRIVQCRSVEGSCGF; disulfide 7-14; listed as Homo sapiens) [Compound 9604]		49 % of control	Active	118 ± 16 nmol/g tissue/hr

Substance	activity according to the in vivo and in vitro assay results (in words)	In vitro lipogenesis % of control	In vitro lipogenesis Activity	In vitro lipogenesis, rate of [C14]-glucose incorporation into [C14]-lipid
9403 (LRKVQCRSVEGSCGF; disulfide 6-13; listed as Homo sapiens) [Compound 9403]		69 % of control	Active	167 ± 28 nmol/g tissue/hr
9406 (LRIVQCASVEGSCGF; listed as Homo sapiens) [Compound 9406]		97 % of control	Inactive	236 ± 17 nmol/g tissue/hr
9501 (LRIVQCRSVE[dA]SC[dA]F; disulfide 6-13; listed as Homo sapiens) [compound 9501]	activity being retained			
9606 (LKIVQCRSVEGSCGF; disulfide 6-13; listed as Homo sapiens) [compound 9606]	retains activity			
9605 (KLRIVQCRSVEGSCGF; disulfide 7-14; listed as Homo sapiens) [Compound 9605]		76 % of control	Active	184 ± 41 nmol/g tissue/hr
9410 (H-LRIVQCRSVEGSCGF; disulfide 6-13; also: desamino N-terminus; listed as Homo sapiens) [Compound 9410]		59 % of control	Active	143 ± 20 nmol/g tissue/hr
9611 (LRIVQARSVEGSCGF; listed as Homo sapiens) [compound 9611]	inactive			
9610 (LRIVACRSVEGSCGF; disulfide 6-13; listed as Homo sapiens) [Compound 9610]		79 % of control	Active	192 ± 14 nmol/g tissue/hr
9401 (LRIVQCRSVEGSCGF; listed as Homo sapiens) [Compound 9401]		75 % of control	Active	161 ± 10 nmol/g tissue/hr
9616 (LRIVQCRSVEGACGF; disulfide 6-13; listed as Homo sapiens) [Compound 9616]		84 % of control	Active	203 ± 19 nmol/g tissue/hr
9611 (LRIVQARSVEGSCGF; listed as Homo sapiens) [Compound 9611]		93 % of control	Inactive	224 ± 19 nmol/g tissue/hr
9618 (KKLRIVQCRSVEGSCGF; disulfide 8-15; listed as Homo sapiens) [Compound 9618]		77 % of control	Active	188 ± 19 nmol/g tissue/hr
9614 (LRIVQCRSVAGSCGF; listed as Homo sapiens) [Compound 9614]		96 % of control	Inactive	233 ± 13 nmol/g tissue/hr
9613 (LRIVQCRSAEGSCGF; disulfide 6-13; listed as Homo sapiens) [Compound 9613]		78 % of control	Active	189 ± 16 nmol/g tissue/hr
9608 (LRAVQCRSVEGSCGF; disulfide 6-13; listed as Homo sapiens) [Compound 9608]		71 % of control	Active	173 ± 12 nmol/g tissue/hr
9602 (LRIVQCRSVEGSCAF; disulfide 6-13; listed as Homo sapiens) [Compound 9602]		73 % of control	Active	176 ± 27 nmol/g tissue/hr
9609 (LRIAQCRSVEGSCGF; disulfide 6-13; listed as Homo sapiens) [Compound 9609]		78 % of control	Active	188 ± 13 nmol/g tissue/hr
